Values belong to the molecule of their own block, whether it stands above or below them.
What was measured:
[1] = test system: diet-induced obese (DIO) mice; experiment: Oral glucose tolerance test (OGTT) in diet-induced obese mice; assay type: in vivo, mouse; conditions: for glucose lowering effects in OGTT (glucose AUC): DIO C57BL/6 mice, 125 mg/kg i.p. once daily for 5 days
Excerpt: High-fat diet feeding in rodents changes multiple biochemical and physiological parameters that reflect the biochemical and physiological changes observed in diet induced obesity (D10). Such diets induce dramatic changes in weight gain that are concomitant with elevations in serum cholesterol, lipids, and triglycerides. Moreover, these high fat diets can lead to atherosclerotic lesions as well as insulin resistance and dysregulation of glucose homeostatic mechanisms that are consistent with obesity induced changes in humans.
Type II diabetes is characterized by high blood glucose levels in the presence of normal amounts of insulin. The animal model or type II diabetes used in these studies involves administering high levels of glucose and then measuring blood glucose levels over time. The test is designed to determine the ability of the experimental animal to maintain glucose homeostasis over time. Drugs that lower blood glucose levels in type II diabetic patients also lower blood glucose levels in this animal model of type II diabetes.
Male C57BL/6J mice were fed a high fat diet for 5 weeks (age 6-11 weeks) prior to study. […] DIO mice were food deprived overnight prior to glucose load (1.5 g/kg, t0). Mice were treated with drug or vehicle 30 minutes before glucose load (t-30). Blood glucose was measured with a glucometer (Accu-Chek® Roche, Indianapolis, IN), from the tip of the tail in free moving mice, at 15 minutes before (t-15), 15 minutes after (t15), and 45 minutes after (t45) glucose load.
In these studies, C57BL/6 mice were fed a high fat diet from 6 to 11 weeks of age, resulting in diet-induced obesity. […] After 5 days of dosing, animals were fasted overnight prior to an oral glucose tolerance test (OGTT). The morning after fasting, a baseline glucose level was measured, followed by compound or vehicle dosing. A second blood glucose level was measured 15 minutes later. At 30 minutes past the first glucose measurement, animals were challenged with a 1.5 g/kg glucose solution per os (p.o.), and blood glucose levels determined 15 and 45 minutes later. Areas under the curve were determined for the blood glucose levels, baselined at the first measurement.

[2] = Body weight of DIO mice during 15-day treatment; assay type: in vivo, mouse; conditions: either time-point or dose (data not shown)
[3] = biological target: T1, human recombinant dipeptidyl dipeptidase-4 (DPP4) (Homo sapiens, UniProt P27487); experiment: Human recombinant DPP4 assay with fluorogenic substrate GP-AMC; assay type: biochemical; conditions: 10 μM; % of control; ns
T1 construct: Cerep (contract laboratory that ran the assay)
Description: DPP4 inhibitor K579 was used as a positive control. Assay was performed by Cerep (Bois l'Eveque, France).
Inhibition is represented as % of control.

[4] = biological target: Kir6.2/SUR1 potassium channels (Homo sapiens, UniProt Q09428+Q14654); experiment: Kir6.2/SUR1 potassium channel patch clamp (PatchXpress) in HEK293 cells
Description: Inhibition is represented as % of control. “ns” represents not statistically significant or P>0.05.

[5] = test system: circulating prolactin levels; experiment: Prolactin assay (plasma prolactin ELISA after OGTT); assay type: in vivo, mouse; conditions: DIO mice, once daily i.p. for 5 days, plasma 45 min after glucose load
Description: Mice were treated with drug or vehicle 30 minutes before an OGTT (t-30). At 45 minutes after glucose load (t45), mice were bled via retro-orbital sinus into EDTA microfuge tubes. Plasma was rapidly prepared and stored at −80° C. until measurement of prolactin levels (ELISA kit, Genway Biotech, San Diego, Calif.).

[6] = test system: normal mice; experiment: OGTT with plasma insulin determination in normal mice; assay type: in vivo, mouse; conditions: single dose 10 mg/kg i.p.
Description: (§1) Normal male 12 week old C57BL/6J mice were food deprived 6 hours before the glucose load (1.5 g/kg, t0). Mice were treated with drug or vehicle 30 minutes before glucose load (t-30). Blood glucose was measured with a glucometer (Accu-Chek® Roche, Nutley, N.J.), from the tip of the tail in free moving mice, at t-30, t0, t15, t30, t60, t90, t120 minutes. Blood collection (about 20 μl) was performed from the tip of the tail at t-30, t15 and t30 for plasma insulin determination (ELISA kit, Alpco Diagnostics, Salem, N.H.). After a 1-week washout period, mice were randomly allocated into 2 groups. Mice were food deprived 6 hours before the glucose load (1.5 g/kg, t0) was performed. Mice were treated with drug or vehicle 30 minutes before glucose load. Blood glucose was measured at t0 and t15 minutes. At t15, mice were anesthetized with isoflurane and blood was collected from the hepatoportal vein (on EDTA/diprotin/ aprotinin anticoagulant cocktail). Plasma was rapidly prepared and stored at -80° C. The active form of GLP-1 was then measured (ELISA kit, Millipore, Billerica, Mass.).

[7] = test system: active GLP-1; experiment: Active GLP-1 in hepatoportal vein blood of normal mice; assay type: in vivo, mouse; conditions: 10 mg/kg i.p., 15 min after glucose bolus
Description: as §1

[8] = Pharmacokinetic analysis in mice (plasma, LC/MS/MS); assay type: in vivo, mouse; conditions: normal male mice, 10 mg/kg i.p.
Description: Male C57B1/6 mice (n =4, two cohorts) were treated with drug and at the designated times after dosing (5, 15, 30, 60 and 120), whole blood was collected via the retro-orbital sinus in heparanized tubes and plasma prepared by centrifugation at 1650 relative centrifugal force (RCF) at 4° C. Plasma samples were extracted by a standard protocol using an acetonitrile/protein precipitation method, and levels of test agent were analyzed by LC/MS/MS.

[9] = test system: serum prolactin levels; conditions: rat, cited from earlier work; for increase in serum prolactin levels: marker of dopamine D2 receptor blockade
[10] = test system: dopamine D2/D3 receptors; conditions: in-vitro assays; cited from earlier work

Sequence of Kir6.2/SUR1 potassium channels (Q14654 whole entry): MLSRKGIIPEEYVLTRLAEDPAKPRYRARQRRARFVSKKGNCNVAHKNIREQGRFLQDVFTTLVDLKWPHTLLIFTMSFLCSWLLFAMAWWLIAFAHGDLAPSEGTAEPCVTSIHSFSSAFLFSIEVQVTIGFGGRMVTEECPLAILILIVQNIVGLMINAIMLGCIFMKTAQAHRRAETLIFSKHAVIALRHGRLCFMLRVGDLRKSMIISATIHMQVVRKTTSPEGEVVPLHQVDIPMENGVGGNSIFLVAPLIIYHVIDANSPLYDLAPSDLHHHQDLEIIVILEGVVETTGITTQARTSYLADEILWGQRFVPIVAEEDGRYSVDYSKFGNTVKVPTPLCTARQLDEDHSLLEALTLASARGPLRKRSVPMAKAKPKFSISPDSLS
Sequence of Kir6.2/SUR1 potassium channels (Q09428 whole entry): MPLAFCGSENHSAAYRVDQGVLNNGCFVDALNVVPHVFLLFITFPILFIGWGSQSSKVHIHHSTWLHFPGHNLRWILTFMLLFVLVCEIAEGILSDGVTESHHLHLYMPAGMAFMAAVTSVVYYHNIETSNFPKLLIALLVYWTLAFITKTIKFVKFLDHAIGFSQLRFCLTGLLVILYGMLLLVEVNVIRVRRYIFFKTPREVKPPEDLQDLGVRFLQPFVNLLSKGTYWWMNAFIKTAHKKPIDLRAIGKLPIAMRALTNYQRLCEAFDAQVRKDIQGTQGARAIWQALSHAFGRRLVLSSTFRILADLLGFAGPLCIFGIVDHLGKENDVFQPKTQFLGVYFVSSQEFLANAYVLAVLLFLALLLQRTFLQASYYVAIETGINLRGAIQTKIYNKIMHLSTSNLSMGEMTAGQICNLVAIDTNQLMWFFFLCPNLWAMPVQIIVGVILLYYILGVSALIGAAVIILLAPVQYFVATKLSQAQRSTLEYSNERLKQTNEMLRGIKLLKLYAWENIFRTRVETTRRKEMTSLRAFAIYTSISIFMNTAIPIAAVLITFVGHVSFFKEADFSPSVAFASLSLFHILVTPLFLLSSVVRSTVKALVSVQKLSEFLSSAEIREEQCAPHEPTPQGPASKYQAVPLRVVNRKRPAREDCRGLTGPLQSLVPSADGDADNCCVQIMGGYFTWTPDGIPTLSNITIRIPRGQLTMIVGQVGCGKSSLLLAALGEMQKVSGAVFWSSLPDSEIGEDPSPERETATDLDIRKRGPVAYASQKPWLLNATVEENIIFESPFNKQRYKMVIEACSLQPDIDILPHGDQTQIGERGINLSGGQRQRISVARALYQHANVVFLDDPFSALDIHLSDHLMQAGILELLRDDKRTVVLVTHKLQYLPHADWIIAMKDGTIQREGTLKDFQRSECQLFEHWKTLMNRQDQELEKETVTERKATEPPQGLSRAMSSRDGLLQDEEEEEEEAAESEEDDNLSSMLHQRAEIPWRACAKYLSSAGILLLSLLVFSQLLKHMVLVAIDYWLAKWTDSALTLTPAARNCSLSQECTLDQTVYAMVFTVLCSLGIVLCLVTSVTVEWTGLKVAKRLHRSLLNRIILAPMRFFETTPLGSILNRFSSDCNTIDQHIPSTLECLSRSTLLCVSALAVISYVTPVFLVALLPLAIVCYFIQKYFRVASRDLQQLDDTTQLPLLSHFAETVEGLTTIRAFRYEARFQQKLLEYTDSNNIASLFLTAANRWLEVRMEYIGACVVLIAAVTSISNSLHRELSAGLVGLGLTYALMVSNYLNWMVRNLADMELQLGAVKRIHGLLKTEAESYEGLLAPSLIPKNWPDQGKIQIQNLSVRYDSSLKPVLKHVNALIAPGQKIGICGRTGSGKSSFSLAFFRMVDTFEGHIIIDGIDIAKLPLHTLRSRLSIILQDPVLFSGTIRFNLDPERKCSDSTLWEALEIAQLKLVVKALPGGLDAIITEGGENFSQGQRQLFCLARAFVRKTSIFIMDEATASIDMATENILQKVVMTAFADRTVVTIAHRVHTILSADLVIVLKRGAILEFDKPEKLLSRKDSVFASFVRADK
T1 sequence (P27487 whole entry): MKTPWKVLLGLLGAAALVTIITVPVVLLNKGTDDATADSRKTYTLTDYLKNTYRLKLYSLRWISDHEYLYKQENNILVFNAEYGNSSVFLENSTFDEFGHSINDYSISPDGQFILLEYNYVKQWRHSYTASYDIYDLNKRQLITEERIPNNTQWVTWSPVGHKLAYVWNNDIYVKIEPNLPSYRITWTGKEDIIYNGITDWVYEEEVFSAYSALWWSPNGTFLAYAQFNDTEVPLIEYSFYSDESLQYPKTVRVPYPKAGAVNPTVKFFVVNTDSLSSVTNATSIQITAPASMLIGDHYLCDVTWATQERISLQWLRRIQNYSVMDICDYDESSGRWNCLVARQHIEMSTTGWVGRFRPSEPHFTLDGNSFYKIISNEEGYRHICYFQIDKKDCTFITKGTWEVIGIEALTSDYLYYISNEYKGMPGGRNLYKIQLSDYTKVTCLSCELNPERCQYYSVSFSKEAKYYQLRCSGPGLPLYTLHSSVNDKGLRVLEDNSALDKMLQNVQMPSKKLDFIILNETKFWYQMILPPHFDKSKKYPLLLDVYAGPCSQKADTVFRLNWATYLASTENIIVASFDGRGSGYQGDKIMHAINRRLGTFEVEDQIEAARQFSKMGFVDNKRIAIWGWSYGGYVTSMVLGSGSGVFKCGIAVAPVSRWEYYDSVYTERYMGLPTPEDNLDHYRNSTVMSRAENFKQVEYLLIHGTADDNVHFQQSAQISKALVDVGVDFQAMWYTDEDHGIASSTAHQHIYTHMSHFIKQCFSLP

% inhibition of DPP4 [3]: 1.9 (2.0) %
% inhibition of Kir6.2/SUR1 ([4]; 10 μM, HEK293 cells, channel activated with 300 μM diazoxide, % of control, ns): 3.4 (2.4) %
effect on the sulphonylurea receptor in-vitro ([4]; in-vitro (Table 5)): unaffected
SMILES: CCN1CCCC1CNC(=O)c1cc(S(=O)(=O)CC)c(N)cc1OC (racemic) [(R/S)-amisulpride, amisulpride]
glucose lowering effects in OGTT (glucose AUC) [1]: glucose lowering effects
fasting blood glucose levels ([1]; DIO mice, 20 mg/kg, following 5 days of treatment, P<0.05 vs vehicle): 158.7 ± 7.5 mg/dL
glucose excursion during the OGTT ([1]; DIO mice, once daily i.p. for 15 days, both amisulpride doses, OGTT on days 5 and 15): significant reduction
changes in body weight [2]: No changes

SMILES: CCN1CCCC1CNC(=O)c1cc(S(N)(=O)=O)ccc1OC (racemic) [(R/S)-sulpride]
glucose lowering effects in OGTT (glucose AUC) [1]: glucose lowering effects

SMILES: CCN1CCC[C@@H]1CNC(=O)c1cc(S(=O)(=O)CC)c(N)cc1OC [(R)-amisulpride, (R)(+)-amisulpride]
ED50 for effect on circulating prolactin levels [5]: 1.5 mg/kg
increase in circulating insulin levels compared to vehicle ([6]; OGTT): approximately 2.5 fold
glucose excursions ([6]; vs vehicle): significantly decreased
active form GLP-1 levels from the hepatic portal vein [7]: unchanged
maximal plasma drug levels [8]: did not exceed concentrations used in the in vitro assays
increase in serum prolactin levels [9]: 1 fold
increase in ED50 required to reach maximal effect on prolactin, compared to (S)-amisulpride [9]: 40 fold
times less potent than (S)-amisulpride in displacing dopamine D2/D3 receptor ligands [10]: 20-40 times

SMILES: CCN1CCC[C@H]1CNC(=O)c1cc(S(=O)(=O)CC)c(N)cc1OC [(S)-amisulpride, (S)(−)-amisulpride]
ED50 for effect on circulating prolactin levels [5]: 0.01 mg/kg
increase in serum prolactin levels [9]: 4 fold

— US20150018360A1, “COMPOSITIONS AND METHODS FOR TREATING METABOLIC DISORDERS” (BIOMED VALLEY DISCOVERIES, INC., priority 2011, published 2015)
